In brackets after ≈: the same amount, converted by molar mass.
Legend:
ParE = molecular target: T1, ParE (Streptococcus pneumoniae, UniProt Q7X1P7); experiment: Inhibition of Streptococcus pneumoniae SP-3 parE after 30 mins
T1 sequence (Q7X1P7 whole entry): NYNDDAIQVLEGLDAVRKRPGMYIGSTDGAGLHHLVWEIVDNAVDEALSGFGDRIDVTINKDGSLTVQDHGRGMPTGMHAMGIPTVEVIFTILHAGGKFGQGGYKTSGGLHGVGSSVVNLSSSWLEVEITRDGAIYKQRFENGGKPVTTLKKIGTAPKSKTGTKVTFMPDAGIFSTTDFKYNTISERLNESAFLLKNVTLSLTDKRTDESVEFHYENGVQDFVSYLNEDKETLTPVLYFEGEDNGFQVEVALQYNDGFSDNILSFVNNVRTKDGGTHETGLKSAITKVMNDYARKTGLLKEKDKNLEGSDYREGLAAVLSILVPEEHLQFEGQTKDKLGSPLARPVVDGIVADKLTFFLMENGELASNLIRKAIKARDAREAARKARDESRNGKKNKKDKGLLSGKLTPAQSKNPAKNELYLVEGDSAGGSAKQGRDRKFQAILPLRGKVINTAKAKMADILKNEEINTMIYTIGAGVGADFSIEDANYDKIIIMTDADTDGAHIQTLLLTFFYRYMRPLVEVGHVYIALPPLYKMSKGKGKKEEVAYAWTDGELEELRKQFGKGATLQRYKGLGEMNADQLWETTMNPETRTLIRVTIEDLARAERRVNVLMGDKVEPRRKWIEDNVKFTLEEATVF

Streptococcus pneumoniae [1] = experiment: Antibacterial activity against fluoroquinolone resistant Streptococcus pneumoniae SP-3765 by NCCLS method; assay type: functional
Staphylococcus aureus [2] = experiment: Antibacterial activity against methicillin resistant Staphylococcus aureus SA-1417 by NCCLS method; assay type: functional
Streptococcus pyogenes = experiment: Antibacterial activity against Streptococcus pyogenes SP1-1 by NCCLS method; assay type: functional
Streptococcus pneumoniae [3] = experiment: Antibacterial activity against Streptococcus pneumoniae SP-3 by NCCLS method; assay type: functional
DNA gyrase subunit B = DNA gyrase subunit B (Streptococcus pneumoniae serotype 4 (strain ATCC BAA-334 / TIGR4), UniProt P0A4L9); experiment: Inhibition of Streptococcus pneumoniae SP-3 gyrB by enzyme coupled phosphate assay
DNA gyrase subunit B, sequence (P0A4L9 whole entry): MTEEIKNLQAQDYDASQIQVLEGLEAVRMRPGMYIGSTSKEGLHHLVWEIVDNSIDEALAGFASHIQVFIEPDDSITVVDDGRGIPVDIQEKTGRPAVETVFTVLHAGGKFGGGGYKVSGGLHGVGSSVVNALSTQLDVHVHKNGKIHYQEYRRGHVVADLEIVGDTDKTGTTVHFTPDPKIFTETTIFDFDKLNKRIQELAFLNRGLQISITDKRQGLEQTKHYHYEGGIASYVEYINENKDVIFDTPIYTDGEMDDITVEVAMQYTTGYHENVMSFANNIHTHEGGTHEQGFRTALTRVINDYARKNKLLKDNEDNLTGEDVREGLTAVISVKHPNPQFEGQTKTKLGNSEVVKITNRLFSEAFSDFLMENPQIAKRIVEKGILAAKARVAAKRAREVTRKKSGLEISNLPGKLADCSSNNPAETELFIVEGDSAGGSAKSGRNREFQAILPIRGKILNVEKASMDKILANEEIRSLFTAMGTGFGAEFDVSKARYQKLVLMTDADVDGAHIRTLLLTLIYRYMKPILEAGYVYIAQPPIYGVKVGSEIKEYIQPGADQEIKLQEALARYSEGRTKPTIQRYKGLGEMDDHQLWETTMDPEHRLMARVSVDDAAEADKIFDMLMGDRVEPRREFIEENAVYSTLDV

Staphylococcus aureus [4] = experiment: Antibacterial activity against Staphylococcus aureus UC76 by NCCLS method; assay type: functional, organism-based; conditions: read-out: MIC

CCNC(=O)Nc1cn2c(-c3ncc(C)cn3)cc(-c3ccc(C)nc3)cc2n1
IC50 (ParE): 373 nM | MIC (Streptococcus pneumoniae [1]): 0.25 µg/mL (≈ 0.645 µM) | MIC (Staphylococcus aureus [2]): 1 µg/mL (≈ 2.58 µM) | MIC (Streptococcus pyogenes): 0.25 µg/mL (≈ 0.645 µM) | MIC (Streptococcus pneumoniae [3]): 0.5 µg/mL (≈ 1.29 µM) | IC50 (DNA gyrase subunit B): 96 nM | MIC (Staphylococcus aureus [4]): 0.5 µg/mL (≈ 1.29 µM)

Cc1cnc(-c2cc(-c3cccnc3)cc3nc(NC(=O)N(C)C(F)(F)F)cn23)nc1
IC50 (ParE): 504 nM | MIC (Streptococcus pneumoniae [1]): 0.125 µg/mL (≈ 0.292 µM) | MIC (Staphylococcus aureus [2]): 4 µg/mL (≈ 9.36 µM) | MIC (Streptococcus pyogenes): 16 µg/mL (≈ 37.4 µM) | MIC (Streptococcus pneumoniae [3]): 0.25 µg/mL (≈ 0.585 µM) | IC50 (DNA gyrase subunit B): 368 nM | MIC (Staphylococcus aureus [4]): 8 µg/mL (≈ 18.7 µM)

CCNC(=O)Nc1cn2c(-c3ncccn3)cc(-c3cncnc3)cc2n1
IC50 (ParE): 280 nM | MIC (Streptococcus pneumoniae [1]): 0.125 µg/mL (≈ 0.347 µM) | MIC (Streptococcus pyogenes): 0.5 µg/mL (≈ 1.39 µM) | MIC (Streptococcus pneumoniae [3]): 0.125 µg/mL (≈ 0.347 µM) | IC50 (DNA gyrase subunit B): 75 nM | MIC (Staphylococcus aureus [4]): 0.5 µg/mL (≈ 1.39 µM)

CCNC(=O)Nc1cn2c(-c3ncc(Cl)cn3)cc(-c3cccnc3)cc2n1
IC50 (ParE): 419 nM | MIC (Streptococcus pneumoniae [1]): 0.03 µg/mL (≈ 0.0762 µM) | MIC (Staphylococcus aureus [2]): 0.25 µg/mL (≈ 0.635 µM) | MIC (Streptococcus pyogenes): 0.125 µg/mL (≈ 0.317 µM) | MIC (Streptococcus pneumoniae [3]): 0.06 µg/mL (≈ 0.152 µM) | IC50 (DNA gyrase subunit B): 149 nM | MIC (Staphylococcus aureus [4]): 0.25 µg/mL (≈ 0.635 µM)

CCNC(=O)Nc1cn2c(-c3nccc(C4CC4)n3)cc(-c3cccnc3)cc2n1
IC50 (ParE): 3750 nM | MIC (Streptococcus pneumoniae [1]): 0.25 µg/mL (≈ 0.626 µM) | MIC (Staphylococcus aureus [2]): 0.5 µg/mL (≈ 1.25 µM) | MIC (Streptococcus pyogenes): 1 µg/mL (≈ 2.5 µM) | MIC (Streptococcus pneumoniae [3]): 0.125 µg/mL (≈ 0.313 µM) | IC50 (DNA gyrase subunit B): 330 nM | MIC (Staphylococcus aureus [4]): 0.5 µg/mL (≈ 1.25 µM)

CCNC(=O)Nc1cn2c(-c3nc(C(F)(F)F)cc(C(F)(F)F)n3)cc(-c3cccnc3)cc2n1
IC50 (ParE): 745 nM | MIC (Streptococcus pneumoniae [1]): 0.125 µg/mL (≈ 0.252 µM) | MIC (Staphylococcus aureus [2]): 4 µg/mL (≈ 8.07 µM) | MIC (Streptococcus pyogenes): 1 µg/mL (≈ 2.02 µM) | MIC (Streptococcus pneumoniae [3]): 0.25 µg/mL (≈ 0.505 µM) | IC50 (DNA gyrase subunit B): 242 nM | MIC (Staphylococcus aureus [4]): 2 µg/mL (≈ 4.04 µM)

CCNC(=O)Nc1cn2c(-c3ncc(C)cn3)cc(-c3ccn(C)c(=O)c3)cc2n1
MIC (Streptococcus pneumoniae [1]): 0.06 µg/mL (≈ 0.149 µM) | MIC (Streptococcus pyogenes): 0.125 µg/mL (≈ 0.31 µM) | MIC (Streptococcus pneumoniae [3]): 0.06 µg/mL (≈ 0.149 µM) | MIC (Staphylococcus aureus [4]): 0.5 µg/mL (≈ 1.24 µM)

CCNC(=O)Nc1cn2c(-c3ncc(C)cn3)cc(-c3ccn(CCOC)c(=O)c3)cc2n1
IC50 (ParE): 1640 nM | MIC (Streptococcus pneumoniae [1]): 0.125 µg/mL (≈ 0.279 µM) | MIC (Staphylococcus aureus [2]): 0.25 µg/mL (≈ 0.559 µM) | MIC (Streptococcus pyogenes): 0.06 µg/mL (≈ 0.134 µM) | MIC (Streptococcus pneumoniae [3]): 0.06 µg/mL (≈ 0.134 µM) | IC50 (DNA gyrase subunit B): 401 nM | MIC (Staphylococcus aureus [4]): 0.06 µg/mL (≈ 0.134 µM)

CCNC(=O)Nc1cn2c(-c3ncc(F)cn3)cc(-c3cccnc3)cc2n1
IC50 (ParE): 364 nM | MIC (Streptococcus pneumoniae [1]): 0.125 µg/mL (≈ 0.331 µM) | MIC (Streptococcus pyogenes): 0.5 µg/mL (≈ 1.32 µM) | MIC (Streptococcus pneumoniae [3]): 0.125 µg/mL (≈ 0.331 µM) | IC50 (DNA gyrase subunit B): 56 nM | MIC (Staphylococcus aureus [4]): 1 µg/mL (≈ 2.65 µM)

CCNC(=O)Nc1cn2c(-c3ncc(C)cn3)cc(-c3ccn(CC)c(=O)c3)cc2n1
IC50 (ParE): 624 nM | MIC (Streptococcus pneumoniae [1]): 0.125 µg/mL (≈ 0.299 µM) | MIC (Staphylococcus aureus [2]): 0.5 µg/mL (≈ 1.2 µM) | MIC (Streptococcus pyogenes): 1 µg/mL (≈ 2.4 µM) | MIC (Streptococcus pneumoniae [3]): 0.06 µg/mL (≈ 0.144 µM) | IC50 (DNA gyrase subunit B): 51 nM | MIC (Staphylococcus aureus [4]): 0.25 µg/mL (≈ 0.599 µM)

CCNC(=O)Nc1cn2c(-c3ncc(C)cn3)cc(-c3ccc(OC)nc3)cc2n1
IC50 (ParE): 147 nM | MIC (Streptococcus pneumoniae [1]): 0.125 µg/mL (≈ 0.31 µM) | MIC (Staphylococcus aureus [2]): 2 µg/mL (≈ 4.96 µM) | MIC (Streptococcus pyogenes): 0.5 µg/mL (≈ 1.24 µM) | MIC (Streptococcus pneumoniae [3]): 0.25 µg/mL (≈ 0.62 µM) | IC50 (DNA gyrase subunit B): 117 nM | MIC (Staphylococcus aureus [4]): 0.5 µg/mL (≈ 1.24 µM)

Cc1cnc(-c2cc(-c3cccnc3)cc3nc(NC(=O)NC4CC4)cn23)nc1
IC50 (ParE): 571 nM | MIC (Streptococcus pneumoniae [1]): 0.25 µg/mL (≈ 0.649 µM) | MIC (Staphylococcus aureus [2]): > 64 µg/mL | MIC (Streptococcus pyogenes): 16 µg/mL (≈ 41.5 µM) | MIC (Streptococcus pneumoniae [3]): 1 µg/mL (≈ 2.59 µM) | IC50 (DNA gyrase subunit B): 295 nM | MIC (Staphylococcus aureus [4]): 64 µg/mL (≈ 166 µM)

CCOC(=O)Nc1cn2c(-c3nccc(C)n3)cc(-c3cnc(N(C)C)nc3)cc2n1
IC50 (ParE): 6220 nM | MIC (Streptococcus pneumoniae [1]): 0.125 µg/mL (≈ 0.299 µM) | MIC (Streptococcus pyogenes): 0.25 µg/mL (≈ 0.597 µM) | MIC (Streptococcus pneumoniae [3]): 0.5 µg/mL (≈ 1.19 µM) | IC50 (DNA gyrase subunit B): 1380 nM | MIC (Staphylococcus aureus [4]): 64 µg/mL (≈ 153 µM)

CCNC(=O)Nc1cn2c(-c3ncc(C)cn3)cc(-c3ccn(CC(=O)O)c(=O)c3)cc2n1
IC50 (ParE): 2140 nM | MIC (Streptococcus pneumoniae [1]): 64 µg/mL (≈ 143 µM) | MIC (Staphylococcus aureus [2]): 32 µg/mL (≈ 71.5 µM) | MIC (Streptococcus pyogenes): 64 µg/mL (≈ 143 µM) | MIC (Streptococcus pneumoniae [3]): 64 µg/mL (≈ 143 µM) | IC50 (DNA gyrase subunit B): 98 nM | MIC (Staphylococcus aureus [4]): 64 µg/mL (≈ 143 µM)

CCNC(=O)Nc1cn2c(-c3nccc(C(=O)OC)n3)cc(-c3cccnc3)cc2n1
IC50 (ParE): 911 nM | MIC (Streptococcus pneumoniae [1]): 16 µg/mL (≈ 38.3 µM) | MIC (Staphylococcus aureus [2]): 8 µg/mL (≈ 19.2 µM) | MIC (Streptococcus pyogenes): 32 µg/mL (≈ 76.7 µM) | MIC (Streptococcus pneumoniae [3]): 16 µg/mL (≈ 38.3 µM) | IC50 (DNA gyrase subunit B): 52 nM | MIC (Staphylococcus aureus [4]): 8 µg/mL (≈ 19.2 µM)

CCNC(=O)Nc1cn2c(-c3ncc(C(C)C)cn3)cc(-c3cccnc3)cc2n1
IC50 (ParE): 1380 nM | MIC (Streptococcus pneumoniae [1]): 0.25 µg/mL (≈ 0.623 µM) | MIC (Streptococcus pyogenes): 0.5 µg/mL (≈ 1.25 µM) | MIC (Streptococcus pneumoniae [3]): 0.25 µg/mL (≈ 0.623 µM) | IC50 (DNA gyrase subunit B): 1910 nM | MIC (Staphylococcus aureus [4]): 1 µg/mL (≈ 2.49 µM)

CCNC(=O)Nc1cn2c(-c3ncc(CC)cn3)cc(-c3cccnc3)cc2n1
IC50 (ParE): 265 nM | MIC (Streptococcus pneumoniae [1]): 0.06 µg/mL (≈ 0.155 µM) | MIC (Staphylococcus aureus [2]): 1 µg/mL (≈ 2.58 µM) | MIC (Streptococcus pyogenes): 0.125 µg/mL (≈ 0.323 µM) | MIC (Streptococcus pneumoniae [3]): 0.06 µg/mL (≈ 0.155 µM) | IC50 (DNA gyrase subunit B): 353 nM | MIC (Staphylococcus aureus [4]): 0.25 µg/mL (≈ 0.645 µM)

CCC(=O)Nc1cn2c(-c3ncc(C)cn3)cc(-c3cccnc3)cc2n1
IC50 (ParE): 5000 nM | MIC (Streptococcus pneumoniae [1]): 16 µg/mL (≈ 44.6 µM) | MIC (Staphylococcus aureus [2]): > 64 µg/mL | MIC (Streptococcus pyogenes): 16 µg/mL (≈ 44.6 µM) | MIC (Streptococcus pneumoniae [3]): 16 µg/mL (≈ 44.6 µM) | IC50 (DNA gyrase subunit B): 255 nM | MIC (Staphylococcus aureus [4]): 64 µg/mL (≈ 179 µM)

From ChEMBL document CHEMBL1155993, “5-(2-Pyrimidinyl)-imidazo[1,2-a]pyridines are antibacterial agents targeting the ATPase domains of DNA gyrase and topoisomerase IV” (Bioorg Med Chem Lett, 2009)
